Source: US20080267948A1, “Croos-B Structure Binding Compounds” (priority 2005, published 2008)
“Also recorded” adds a separate entry of the source.

Tests used:
tPA/plasminogen = molecular target: T1, tPA/plasminogen (Homo sapiens, UniProt P00750); test: tPA/plasminogen activation by OVA heated in the presence of compounds (substrate PNAPEP1751); type: biochemical; conditions: 25 μg/ml OVA, 25 μg/ml compound, […] DMSO
T1 construct: purchased Boehringer Ingelheim Actilyse
Description: Heated OVA, either in PBS/1% DMSO (positive control), or in the same buffer in the presence of 1 mg/ml of the compounds, was used 40-fold diluted in the assay. Negative control was buffer without OVA. […] In addition, it was assessed whether the compounds interfere with absorbance readings at 405 nm, with converted chromogenic substrate. […] The yellow solution is divided over wells of an ELISA plate. […] Signals are compared and related to the control.

[1] = molecular target: T2, heat-denatured misfolded ovalbumin (DOVA) (Gallus gallus, UniProt P01012); test: ELISA binding of tPA to immobilized misfolded ovalbumin after pre-incubation with compounds; design: species or system chicken; conditions: for influence on tPA binding to immobilized misfolded OVA: misfolded OVA first overlayed with compound (concentration series), then tPA; for activity at 500 µg/mL: read-out: % tPA binding (after compound incubation), DOVA
T2 construct: purchased Sigma A5503
T2 sequence (P01012 2-386 limits assumed): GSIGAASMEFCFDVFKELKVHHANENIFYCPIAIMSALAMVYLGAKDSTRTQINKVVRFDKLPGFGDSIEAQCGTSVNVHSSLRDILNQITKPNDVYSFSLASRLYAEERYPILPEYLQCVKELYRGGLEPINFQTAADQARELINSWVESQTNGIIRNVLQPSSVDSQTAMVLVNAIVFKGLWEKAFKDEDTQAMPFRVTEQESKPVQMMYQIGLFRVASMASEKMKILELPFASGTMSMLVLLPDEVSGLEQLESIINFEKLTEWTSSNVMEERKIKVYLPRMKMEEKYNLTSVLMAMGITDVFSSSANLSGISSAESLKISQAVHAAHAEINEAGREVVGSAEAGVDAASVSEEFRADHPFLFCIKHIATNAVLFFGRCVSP
Description: (§1) Compounds were now diluted 10× in PBS/0.1% Tween20 (500 μg/ml compound). […] With this approach a further selection of the compounds was achieved. Now, compounds that at least interact with HB-AGE are selected. With the selection, similar binding assays are performed with misfolded OVA and Aβ. Finally, concentration series of the selected compounds are used in the binding studies.

[2] = molecular target: T3, Hb-AGE (glucose-6-phosphate modified human haemoglobin) (Homo sapiens, UniProt P68871+P69905); test: ELISA binding of tPA to immobilized Hb-AGE, compounds co-incubated with tPA; conditions: compound mixed with tPA, control without compound = 100
T3 construct: purchased Sigma-Aldrich H7379
T3 sequence (P69905 2-142 limits assumed): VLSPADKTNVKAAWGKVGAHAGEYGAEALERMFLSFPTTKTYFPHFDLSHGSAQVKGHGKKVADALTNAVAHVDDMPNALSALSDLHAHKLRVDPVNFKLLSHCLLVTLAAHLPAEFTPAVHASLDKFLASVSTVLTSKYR
T3 sequence (P68871 2-147 limits assumed): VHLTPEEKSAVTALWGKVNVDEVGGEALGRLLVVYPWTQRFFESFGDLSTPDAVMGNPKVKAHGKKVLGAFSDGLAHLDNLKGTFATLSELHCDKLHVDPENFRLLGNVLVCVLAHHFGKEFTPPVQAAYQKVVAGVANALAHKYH
Description: The small compound library is depicted in Tables 4-5. […] Binding experiments were performed in single wells per compound, in a duplicate experiment. Binding data obtained with this duplicate experiment was averaged.
• 1. […] Coat buffer in control wells. • 2. wash three times with wash buffer • 3. Block all wells with 300 μl 0.5*recommended concentration Roche blocking reagent for 30 minutes at room temperature, with agitation • 4. wash twice • 5. […] Incubate for 30 minutes at room temperature, with agitation • 7. wash five times with TBS/0.1% Tween20 • 8. […] Incubate for 30 minutes at room temperature, with agitation • 10. wash five times with TBS/0.1% Tween20 • 11. Fill wells with 3000× diluted horse raddish peroxidase-labeled polyclonal rabbit anti-mouse antibody (RAMPO, DAKOCytomation) • 12. Incubate for 20 minutes at room temperature, with agitation • 13. Wash five times with TBS/0.1% Tween20 • 14. Wash twice with PBS • 15. Stain with 100 μl TMB, stop with 50 μl 10% H2SO4 • 16. Read absorbance at 450 nm

ovalbumin = molecular target: T4, ovalbumin (Gallus gallus, UniProt P01012); test: Transmission electron microscopy of ovalbumin heated in the presence of small compounds; design: species or system chicken; conditions: 1 mg/ml ovalbumin heated with 1 mg/ml compound
T4 construct: purchased Sigma A5503
T4 sequence (P01012 1-386): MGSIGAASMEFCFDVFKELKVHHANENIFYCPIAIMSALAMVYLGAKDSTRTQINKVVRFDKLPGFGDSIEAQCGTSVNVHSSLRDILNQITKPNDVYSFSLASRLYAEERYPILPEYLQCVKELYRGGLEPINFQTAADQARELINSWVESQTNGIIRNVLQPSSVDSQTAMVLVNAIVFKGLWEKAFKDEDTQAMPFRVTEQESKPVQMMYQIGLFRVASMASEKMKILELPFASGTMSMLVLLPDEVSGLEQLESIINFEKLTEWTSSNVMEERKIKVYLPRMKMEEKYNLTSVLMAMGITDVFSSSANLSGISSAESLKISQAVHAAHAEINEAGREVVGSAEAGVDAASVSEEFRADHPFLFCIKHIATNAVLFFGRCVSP
Description: For TEM analyses grids were prepared according to standard procedures. Ovalbumin samples at 1 mg/ml were applied to 100-mesh copper grids with carbon coated Formvar (Merck, Germany), and subsequently washed with PBS and H2O. Grids were applied to droplets of 2% (m/v) methylcellulose with 0.4% (m/v) uranylacetate pH 4. After a 2-minutes incubation grids were dried on a filter. Images were recorded at 80 kV, at suitable magnifications on a JEM-1200EX electron microscope (JEOL, Japan).

Hb-AGE = molecular target: T5, Hb-AGE (Homo sapiens, UniProt P68871+P69905); test: ELISA binding of tPA to immobilized Hb-AGE after pre-incubation with compounds; conditions: Hb-AGE first overlayed with compound (concentration series), then tPA
T5 construct: purchased Sigma-Aldrich H7379
T5 sequence (P69905 2-142 limits assumed): as the sequence (P69905 2-142 limits assumed) above
T5 sequence (P68871 2-147 limits assumed): as the sequence (P68871 2-147 limits assumed) above
Description: Compounds were now diluted 10× in PBS/0.1% Tween20 (500 μg/ml compound). […] With the selection, similar binding assays are performed with misfolded OVA and Aβ. Finally, concentration series of the selected compounds are used in the binding studies.

amyloid-β(1-40) E22Q = molecular target: T6, amyloid-β(1-40) E22Q (Homo sapiens, UniProt P05067, E693Q); test: ELISA binding of tPA to immobilized Aβ after pre-incubation with compounds; conditions: for % tPA binding (after compound incubation), Aβ: 1 μg/ml coated Aβ first exposed to 500 μg/ml compound, then 80 nM tPA, control = 100
T6 construct: For similar ELISA's with DOVA and Aβ(1-40) E22Q, 1 μg/ml DOVA or Aβ was coated; purchased Peptide facility, Dutch Cancer Institute, Amsterdam; host or cells: synthetic peptide
T6 sequence (P05067 672-711 E693Q): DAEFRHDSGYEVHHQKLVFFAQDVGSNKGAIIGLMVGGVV
Description: as §1

heat-denatured ovalbumin = molecular target: T7, heat-denatured ovalbumin (Gallus gallus, UniProt P01012); test: Thioflavin T fluorescence of ovalbumin and small compounds; design: species or system chicken; conditions: 1 mg/ml compound, 1 mg/ml OVA
T7 construct: purchased Sigma A5503
T7 sequence (P01012 1-386): T4 sequence (P01012 1-386)
Description: To establish the enhancement of Thioflavin T fluorescence by ovalbumin preparations, 90 μl of 25 μM ThT-solution in 50 mM Glycine buffer (pH 9.0) was added to 10 μl sample in duplicate wells of black 96-wells plates. Heat-denatured ovalbumin at 1 mg/ml in PBS with no addition, DMSO at a final concentration of 1% v/v, or 1 mg/ml of the compounds listed in Table 7, was used. Compound stocks are 100 mg/ml in DMSO. In addition, ovalbumin at 1 mg/ml with the same additions was first heat denatured and subsequently used in the fluorescence assay. Heat denaturation was according to the protocol given above. Fluorescence of duplicates was measured on a Thermo Fluoroskan Ascent 2.5, at 435 nm excitation and 485 nm emission wavelengths.

T1 sequence (P00750 36-562): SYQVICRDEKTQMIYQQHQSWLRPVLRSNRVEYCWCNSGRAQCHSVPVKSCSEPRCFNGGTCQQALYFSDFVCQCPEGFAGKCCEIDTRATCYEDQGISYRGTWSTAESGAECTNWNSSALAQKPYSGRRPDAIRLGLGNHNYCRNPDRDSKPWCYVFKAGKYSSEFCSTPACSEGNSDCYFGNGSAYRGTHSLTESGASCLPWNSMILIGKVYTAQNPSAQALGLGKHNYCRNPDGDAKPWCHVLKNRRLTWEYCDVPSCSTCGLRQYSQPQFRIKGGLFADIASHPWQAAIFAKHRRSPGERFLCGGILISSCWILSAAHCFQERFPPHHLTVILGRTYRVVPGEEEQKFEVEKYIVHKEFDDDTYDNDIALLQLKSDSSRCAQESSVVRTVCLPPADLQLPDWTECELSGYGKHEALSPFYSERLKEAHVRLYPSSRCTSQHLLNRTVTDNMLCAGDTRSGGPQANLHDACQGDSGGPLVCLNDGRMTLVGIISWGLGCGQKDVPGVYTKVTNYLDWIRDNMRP

Compound: Cn1ccc(O)c(C#N)c1=O [compound 51]
- influence on tPA/plasminogen activation by OVA pre-heated in the presence of compound (tPA/plasminogen): Inhibition of tPA/plasminogen activation by OVA pre-heated
- influence on tPA binding to immobilized misfolded OVA [1]: Stimulated tPA binding to immobilized misfolded protein

Compound: COc1cc2c(cc1O)CC1c3c(cc(O)c(OC)c3-2)CCN1C (centres unmarked) [compound 53]
- % tPA binding to Hb-AGE (co-incubation) [2]: 55%

Compound: Br.CC(=O)N1C=C(C2CCCCN2)CCC1 (centres unmarked) [compound 217, Ammophedrine HBr]
- appearance of ovalbumin heated in the presence of compound on TEM image (ovalbumin; HBr): less OVA aggregates after heating in the presence of the; also recorded: Only small amorphous aggregates like Control
- influence on tPA binding to immobilized Hb-AGE (Hb-AGE): Inhibited tPA binding to immobilized misfolded protein (Hb-
- influence on tPA binding to immobilized misfolded OVA [1]: Inhibited tPA binding to immobilized misfolded protein (Hb-

Compound: COC(=O)[C@H]1[C@H]2C[C@H]3c4[nH]c5ccccc5c4CCN3C[C@@H]2CC[C@@H]1O [compound 126, corynanthine]
- appearance of ovalbumin heated in the presence of compound on TEM image (ovalbumin): No protein visible
- influence on tPA binding to immobilized misfolded OVA [1]: Stimulated tPA binding to immobilized misfolded protein

Compound: COc1cc2c(cc1O)-c1c(O)c(OC)cc3c1[C@H](C2)N(C)CC3 [compound 203, Bracteoline]
- % tPA binding to Hb-AGE (co-incubation) [2]: 55%
- % tPA binding (after compound incubation), Aβ (amyloid-β(1-40) E22Q): 85%
- activity at 500 µg/mL [1]: 105%

Compound: COc1cc2c(cc1OC)-c1c(OC)c(OC)c(CO)c3c1C(C2)N(C)CC3 (centres unmarked) [compound 71]
- % tPA binding to Hb-AGE (co-incubation) [2]: 50%

Compound: COc1cc2c(cc1OC)-c1c(OC)c(OC)c(C=O)c3c1[C@H](C2)N(C)CC3 [compound 213, dehydroglaucine derivative]
- % tPA binding to Hb-AGE (co-incubation) [2]: 60%
- % tPA binding (after compound incubation), Aβ (amyloid-β(1-40) E22Q): 210%
- activity at 500 µg/mL [1]: 105%

Compound: CN1CCc2cccc3c2C1Cc1ccc(O)c(O)c1-3 (centres unmarked) [compound 85]
- activity at 500 µg/mL [1]: 135%

Compound: COc1cc2c(cc1OC)-c1c(OC)c(OC)cc3ccnc(c13)C2=O [compound 204, 7-Oxoglaucine]
- % tPA binding to Hb-AGE (co-incubation) [2]: 70%
- % tPA binding (after compound incubation), Aβ (amyloid-β(1-40) E22Q): 55%
- activity at 500 µg/mL [1]: 80%

Compound: COc1cc2c(Cc3c4c5c(cc(OC)c(OC)c5c5c(OC)c(OC)ccc35)CCN4C)c3c4c(cc(OC)c(OC)c4c2cc1OC)CCN3C [compound 210, dehydroglaucine derivative]
- % tPA binding to Hb-AGE (co-incubation) [2]: 80%
- % tPA binding (after compound incubation), Aβ (amyloid-β(1-40) E22Q): 30%
- activity at 500 µg/mL [1]: 90%

Compound: COc1ccc2c(c1O)-c1c(OC)c(OC)cc3c1[C@H](C2)N(C)CC3 [compound 138]
- % tPA binding to Hb-AGE (co-incubation) [2]: 50%
- activity at 500 µg/mL [1]: 65%

Compound: Cc1ccc(C(=O)[C@@H]2[C@H]3C4COC(O4)C(=O)[C@@H]3[C@H]3C=Cc4ccccc4N32)cc1 (some centres unmarked) [compound 15]
- influence on Thioflavin T fluorescence with misfolded OVA (heat-denatured ovalbumin): Inhibition on Thioflavin T fluorescence with misfolded OVA
- influence on tPA binding to immobilized Aβ (amyloid-β(1-40) E22Q; Aβ first overlayed with compound (concentration series), then tPA): Inhibited tPA binding to immobilized misfolded protein (Aβ)
